From patent US6645976B1 (Eli Lilly and Company, priority 1994, dated 2003)
Structures can show the parent of a compound that is named as a salt.

Columns and labels:
[1] = target: T1, recombinant human secreted phospholipase A2 (Homo sapiens, UniProt P14555); assay: sPLA2 Chromogenic Assay (Assay 1); format: biochemical; conditions: diheptanoyl thio-PC substrate, pH 7.5, 40° C. for 30 minutes, absorbance at 405 nanometers
T1 sequence (P14555 21-144): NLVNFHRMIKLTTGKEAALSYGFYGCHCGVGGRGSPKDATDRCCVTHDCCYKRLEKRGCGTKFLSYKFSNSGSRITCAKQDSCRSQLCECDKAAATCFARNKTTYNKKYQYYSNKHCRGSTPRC

Row | IC50 [1] | melting point | Compound
1 | 0.083 µM | 102 to 104 °C | CCc1c(C(=O)C(N)=O)c2c(OCC(=O)OCC(=O)OC(C)(C)C)cccn2c1Cc1ccccc1-c1ccccc1 [Compound 59d]
2 | 0.13 µM | 159 to 162 °C | CCc1c(C(=O)C(N)=O)c2c(OCCC(=O)OC)cccn2c1Cc1ccccc1-c1ccccc1 [Compound 70c, 2-(3-(Biphenyl-2-yl-methyl)-8-(2-carbomethoxyethyloxy)-2-ethylindolizine-1-yl)glyoxylamide]
3 | 0.6 µM | 196 to 197 °C | Cc1c(C(=O)C(N)=O)c2c(OCc3ccccn3)cccn2c1Cc1ccccc1-c1ccccc1 [Compound 59n, 2-(3-Biphenyl-2-ylmethyl-2-methyl-8-(pyridin-2-ylmethoxy)-indolizin-1-yl)-glyoxylamide]
4 | 0.039 µM | 74 to 80 °C | CCc1c(C(=O)C(N)=O)c2c(OCC(=O)OC(C)OC(=O)OC3CCCC3)cccn2c1Cc1ccccc1-c1ccccc1 (stereo not shown) [Compound 59g, 2-(3-Biphenyl-2-ylmethyl-8-(1-cyclopentyloxycarbonyloxyethyloxycarbonylmethyloxy)-2-ethylindolizin-1-yl)glyoxylamide]
5 | 0.1 µM | 221 to 222 °C | CC(C)(C)c1c(C(=O)C(N)=O)c2c(OCC(=O)O)cccn2c1Cc1ccccc1-c1ccccc1 [Compound 58e, 2-(2-t-Butyl-8-carboxymethoxyl-3-(o-phenylbenzyl)indlolin-1-yl)glyoxylamide]
6 | 0.009 µM | 241 to 244 °C | CCc1c(C(=O)C(N)=O)c2c(OCC(=O)O)cccn2c1Cc1cccc(-c2ccccc2)c1 [Compound 58g, 2-(8-Carboxymethyloxy-2-ethyl-3-(m-phenylbenzyl)indlolin-1-yl)glyoxylamide]
7 | – | 105 to 120 °C (dec.) | CCc1c(CC(N)=O)c2cc(OCCCC(=O)O)ccn2c1Cc1ccccc1-c1ccccc1 [Compound 71b, 2-(7-(3-Carboxypropyloxy)-2-ethyl-3-(o-phenylbenzyl)indolizin-1-yl)acetamide]
8 | 0.023 µM | 205 to 207 °C | NC(=O)C(=O)c1c(C2CC2)c(Cc2cccc3ccccc23)n2cccc(OCC(=O)O)c12 [Compound 58j, 2-(8-carboxymethoxyl-2-cyclopropyl-3-(1-naphthylmethyl)indlolin-1-yl)glyoxylamide]
9 | 0.2 µM | 165 to 167 °C | Cc1c(C(=O)C(N)=O)c2c(OCc3ccc4ccccc4n3)cccn2c1Cc1ccccc1-c1ccccc1 [Compound 59p, 2-(3-Biphenyl-2-ylmethyl-2-methyl-8-(quinolin-2-ylmethoxy)-indolizin-1-yl)-glyoxylamide]
10 | 0.022 µM | 113 to 120 °C (dec.) | CCc1c(C(=O)C(N)=O)c2c(OCC(=O)OCCN3CCOCC3)cccn2c1Cc1ccccc1-c1ccccc1 [Compound 59i, 2-(3-(Biphenyl-2-yl-methyl)-2-ethyl-8-(2-morpholinoethyloxycarbonylmethyloxy)indolizine-1-yl)glyoxylamide]
11 | – | 224 to 225 °C | CCCCCC1CCC(Cc2c(CC)c(C(=O)C(N)=O)c3c(OCC(=O)O)cccn23)CC1 (stereo not shown) (as salt: Na) [Compound 52o, 2-(8-(Carboxymethyloxy)-2-ethyl-3-(4-n-pentylcyclohexylmethyl)indolizin-1-yl)glyoxylamide]
12 | – | 112 to 121 °C (dec.) | NC(=O)C(=O)c1c(C2CC2)c(Cc2ccccc2-c2ccccc2)n2ccc(OCCCC(=O)O)cc12 [Compound 67b, 2-(7-(3-Carboxypropyloxy)-2-cyclopropyl-3-(o-phenylbenzyl)indolizin-1-yl)glyoxylamide]
13 | – | 293 °C (dec.) | COC(=O)CNc1cccn2c(Cc3ccccc3)c(C)c(C(=O)C(N)=O)c12 [Compound 89a, 2-(3-Benzyl-8-methoxycarbonylmethylamino-2-methyl-indolizin-1-yl)-glyoxylamide]
14 | – | 173 to 177 °C | COC(=O)CNc1cccn2c(CC3CCCCC3)c(C)c(C(=O)C(N)=O)c12 [Compound 89b, 2-(8-methoxycarbonylmethylamino-3-cyclohexylmethyl-2-methyl-indolizin-1-yl)-glyoxylamide]
15 | 0.007 µM | 206 to 209 °C (dec.) | CCc1c(C(=O)C(N)=O)c2c(OCc3nnn[nH]3)cccn2c1Cc1ccccc1-c1ccccc1 [Compound 59m, 2-(3-(Biphenyl-2-yl-methyl)-2-ethyl-8-(1H-tetracol-5-ylmethyloxy)indolizine-1-yl)glyoxylamide]
16 | 0.28 µM | 147 to 148 °C | NC(=O)C(=O)c1c(C2CCCC2)c(Cc2ccccc2-c2ccccc2)n2cccc(OCC(=O)O)c12 [Compound 58f, 2-(8-Carboxymethyloxy-2-cyclopentyl-3-(o-phenylbenzyl)indlolin-1-yl)glyoxylamide]

More lines, now with the values behind:

Row | Compound | IC50 [1] | melting point
17 | CCc1c(CC(N)=O)c2c(OCC(=O)OCc3ccccc3)cccn2c1Cc1cccc(Cl)c1 [Compound 21y, 2-(8-(Benzyloxycarbonylmethyloxy)-3-(m-chlorobenzyl)-2-ethylindolizin-1-yl)acetamide] | 0.35 µM | 157 to 158 °C
18 | CCc1c(C(=O)C(N)=O)c2c(OCC(=O)OC)cccn2c1Cc1ccc2ccccc2c1 [Compound 51g, 2-(8-(Carbomethoxymethyloxy)-2-ethyl-3-(naphth-2-ylmethyl)indolizin-1-yl)glyoxylamide] | 0.17 µM | 195 to 196 °C
19 | CCOC(=O)COc1cccn2c(Cc3ccccc3-c3ccccc3)c(CC)c(C(=O)C(N)=O)c12 [Compound 37d, (8-(Carbethoxymethyloxy)-2-ethyl-3-(o-phenylbenzyl)indolizin-1-yl)glyoxylamide] | 0.013 µM | 127 to 129 °C
20 | CCc1c(C(=O)C(N)=O)c2c(OCC(=O)OC)cccn2c1CC1CCCCC1 [Compound 51b, 2-(8-(Carbomethoxymethyloxy)-3-cyclohexylmethyl-2-ethylindolizin-1-yl)glyoxylamide] | 0.31 µM | 149 to 150 °C
21 | CCc1c(C(=O)C(N)=O)c2c(OCC(=O)OC)cccn2c1Cc1ccccc1Cc1ccccc1 [Compound 51j] | 0.02 µM | 190 to 191 °C
22 | CCc1c(C(=O)C(N)=O)c2c(OCc3ccccc3)cccn2c1Cc1ccccc1 [Compound 35a, (3-Benzyl-8-benzyloxy-2-ethylindolizin-1-yl)glyoxylamide] | 0.4 µM | 188 to 189 °C
23 | CCc1c(C(=O)C(N)=O)c2c(OCC(=O)OC)cccn2c1Cc1sccc1-c1cccs1 [Compound 51l, 2-(8-(Carbomethoxymethyloxy)-2-ethyl-3-((3-thiophen-2-yl)thiophen-2-ylmethyl)indolizin-1-yl)glyoxylamide] | 0.096 µM | 176 to 177 °C
24 | CCc1c(C(=O)C(=O)N(C)C)c2c(OCC(=O)O)cccn2c1Cc1ccccc1-c1ccccc1 [Compound 40f, (8-(Carboxymethyloxy)-2-ethyl-3-(o-phenylbenzyl)indolizin-1-yl)glyoxyl-N,N-dimethylamide] | > 50 µM | 208 to 209 °C
25 | CCOC(=O)COc1cccn2c(Cc3cccc(Cl)c3)c(CC)c(C(=O)C(N)=O)c12 [Compound 37h, (8-(Carbethoxymethyloxy)-3-(m-chlorobenzyl)-2-ethylindolizin-1-yl)glyoxylamide] | – | 172 to 175 °C
26 | CCCCc1ccc(Cc2c(CC)c(C(=O)C(N)=O)c3c(OCC(=O)OC)cccn23)cc1 [Compound 51s, 2-(3-(p-n-Butylbenzyl)-8-(carbomethoxymethyloxy)-2-ethylindolizin-1-yl)glyoxylamide] | 0.15 µM | 174 to 176 °C
27 | COC(=O)COc1cccn2c(CC3CCCCC3)c(C)c(C(=O)C(N)=O)c12 [Compound 51t] | 0.13 µM | 177 to 178 °C
28 | CCOC(=O)COc1cccn2c(Cc3ccccc3)c(C)c(C(=O)C(N)=O)c12 [Compound 37g, (3-Benzyl-8-(carbethoxymethyloxy)-2-methylindolizin-1-yl)glyoxylamide] | 0.023 µM | 193 to 195 °C
29 | CCCCc1ccc(Cc2c(CC)c(C(=O)C(N)=O)c3c(OC)cccn23)cc1 [Compound 49s, 2-(3-(p-n-Butylbenzyl)-2-ethyl-8-methoxyindolizin-1-yl)glyoxylamide] | 0.36 µM | 195 to 196 °C
30 | CCc1c(CC(N)=O)c2c(OCC(=O)OC)cccn2c1Cc1ccccc1 [Compound 21v, Methyl (3-Benzyl-1-carbamoylmethyl-2-ethylindolizin-8-yloxy)acetate] | – | 159 to 163 °C
31 | CCCC(CCC)Cc1c(CC)c(C(=O)C(N)=O)c2c(OCC(=O)OC)cccn12 [Compound 51f, 2-(8-(Carbomethoxymethyloxy)-2-ethyl-3-(2-propylpentyl)indolizin-1-yl)glyoxylamide] | 0.59 µM | 114 to 115 °C
32 | CCc1c(C(=O)C(N)=O)c2c(OCC(=O)OC(C)(C)C)cccn2c1Cc1ccccc1 [Compound 38a, (3-Benzyl-8-(t-butoxycarbonylmethyloxy)-2-ethylindolizin-1-yl)glyoxylamide] | 0.052 µM | 161 to 162 °C
33 | COC(=O)COc1cccn2c(Cc3ccccc3-c3ccccc3)c(C3CC3)c(C(=O)C(N)=O)c12 [Compound 39k, (8-(Carbmethoxymethyloxy)-2-cyclopropyl-3-(o-phenylbenzyl)indolizin-1-yl)glyoxylamide] | – | 178 to 179 °C
34 | CCc1c(C(=O)C(N)=O)c2c(OCC(=O)OC)cccn2c1Cc1ccccc1[N+](=O)[O-] [Compound 51n, 2-(2-Ethyl-8-(carbomethoxymethyloxy)-3-(o-nitrobenzyl)indolizine-1-yl)glyoxylamide] | – | 156 to 157 °C
35 | CCc1c(CC(N)=O)c2c(OCC(=O)O)cccn2c1-c1cccc2ccccc12 [Compound 22w, 2-(8-(Carboxymethyloxy)-2-ethyl-3-(1-naphthyl)indolizin-1-yl)acetamide] | – | 129 to 133 °C
36 | CCc1c(C(=O)C(N)=O)c2c(OCC(=O)OC)cccn2c1-c1cccs1 [Compound 51k] | – | 182 °C
